Data from PubChem BioAssay (NCI).
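Assay format: 96-well plates, 48-hour exposure. Abbreviation: GI50, concentration required for 50% inhibition of growth. TGI denotes the concentration required for complete inhibition of growth.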

How the values were obtained:
Assay in all cases: DTP human tumour cell line panel, 48 h
IGROV1 ovarian = system: IGROV1 ovarian
SK-OV-3 ovarian = system: SK-OV-3 ovarian
RPMI-8226 leukemia = system: RPMI-8226 leukemia
OVCAR-5 ovarian = system: OVCAR-5 ovarian
CAKI-1 renal = system: CAKI-1 renal
BT-549 breast = system: BT-549 breast
EKVX NSCLC = system: EKVX NSCLC
SNB-75 CNS = system: SNB-75 CNS
HCT-15 colon = system: HCT-15 colon
MOLT-4 leukemia = system: MOLT-4 leukemia

SMILES	GI50 (IGROV1 ovarian) [µM]	TGI (IGROV1 ovarian) [µM]	GI50 (SK-OV-3 ovarian) [µM]	TGI (SK-OV-3 ovarian) [µM]	GI50 (RPMI-8226 leukemia) [µM]	TGI (RPMI-8226 leukemia) [µM]	GI50 (OVCAR-5 ovarian) [µM]	TGI (OVCAR-5 ovarian) [µM]	GI50 (CAKI-1 renal) [µM]	TGI (CAKI-1 renal) [µM]	GI50 (BT-549 breast) [µM]	TGI (BT-549 breast) [µM]	GI50 (EKVX NSCLC) [µM]	TGI (EKVX NSCLC) [µM]	GI50 (SNB-75 CNS) [µM]	TGI (SNB-75 CNS) [µM]	GI50 (HCT-15 colon) [µM]	TGI (HCT-15 colon) [µM]	GI50 (MOLT-4 leukemia) [µM]	TGI (MOLT-4 leukemia) [µM]
COc1cccc2c1C(=O)c1c(O)c3c(c(O)c1C2=O)C[C@](O)(C(=O)CO)C[C@H]3O[C@@H]1C[C@@H](NC(=O)CCCN(C)C2(c3ccc(F)cc3)CC3CCC2C3)[C@H](O)[C@@H](C)O1 (stereo not given in full)	5.72	15.8	7.59	16.4	0.946	2.23	0.863	1.67	7.16	14.5	5.07	13.7	0.917	2.01	1.09	9.89	0.971	2.25	0.382	1.9
O=Cc1ccc(-c2ccc(-c3nc4ccccc4s3)cc2)o1	> 100	> 100	> 100	> 100	20.9	> 100	> 100	> 100	> 100	> 100	> 100	> 100	> 100	> 100	> 100	> 100	90.4	> 100	> 100	> 100
CCOc1ccccc1/C=N\N=C(N/N=C/c1ccccc1OCC)N/N=C/c1ccccc1OCC	3.04	> 100	1.65	6.15	1.73	> 100	2.52	> 100	1.4	> 100	2.67	> 100	3.04	> 100	2.2	> 100	0.95	> 100	4.69	> 100
N#Cc1c(N)nc2c(c1-c1ccc(Cl)cc1)COc1ccc(F)cc1-2	14.8	> 100	> 100	> 100	18.7	41.2	27.5	> 100	25.2	66.3	22	51.2	22	63.3	> 100	> 100	24.1	84.7	22.2	44.6
Nc1nc(Sc2ccc([N+](=O)[O-])c3nonc23)c2ncn(C3OC(CO)C(O)C3O)c2n1 (stereo not given)	2.58	24.2	0.651	14.5	0.278	15.2	1.07	13.1	0.669	> 100	1.6	18.6	2.88	> 49.8	0.886	> 100	0.587	11.9	0.325	> 37.5
COc1cccc(S(=O)(=O)NC2=NCCN2C(=S)SN2CCn3c2nsc3=S)c1	27.2	78.5	20.4	99.1	26.1	97.6	23	79.4	32	66.2	29.9	99.8	95.7	> 100	30	89.6	21.6	43.7	32.5	> 100
CCCN(CCC)c1ccc(/C=N/NC(=O)c2cccnc2)c(C)c1	16	39.7	18.1	46.9	19.4	68.7	13.1	33.8	19.2	58.7	15.2	29.3	13.5	37.2	12.5	36.1	11.9	47.8	16.5	42.6
COc1ccc2c(n1)Sc1nc3ccccc3nc1N2		> 100		> 100		> 100		> 100		> 100		> 100		60.3		> 100		> 100		35.1
CC(C)[C@@]12C[C@@H](OC(=O)C3CO3)[C@@](C)(O1)[C@@H]1CC[C@@H](C)[C@H]1[C@@H]2OC(=O)/C=C/c1ccccc1 (stereo not given in full)	24.3	87.2	18.6	46.8	20.4	55.2	19.3	47.9	13.1	54.8	11.3	27.8	18.2	50.9	10.8	30.9	21.1	60.6	24.7	> 100
COc1cc2c3c(n(CCCN=[N+]=[N-])c(=O)c2cc1OC)-c1ccc([N+](=O)[O-])cc1C3=O	0.215	35	> 100	> 100	90.7	> 100	> 100	> 100	> 100	> 100	14.4	98.8	40.1	> 100	20.9	66.9	> 100	> 100	63.3	> 100
COc1ccc(Nc2ncc(I)c(NCCCNC(=O)C3CCC3)n2)cc1	2.39	16.6	4.81	25.5	10.3	53.8	8.28	68.5	1.32	16	2.52	7.92	6.48	76.6	0.464	7.75	5.88	52.1	4.32	> 100
O=c1[nH]c(-c2ccc(Cl)c(Cl)c2)cn1-c1ccc(Cl)cc1	22.6	79.5	19.9	41.7	56.9	> 100	30.2	> 100	25.4	49	37.7	> 100	35.4	> 100	18.6	37.5	> 100	> 100	20.8	38.9
Oc1ccc(N=Nc2ccc(Br)cc2)c(O)c1	2.81	16.7	3.24	18.3	1.76	5.35	5.75	75.5	4	21	2.67	8.3	3.86	38.7	2.79	21.8	3.42	19.4	1.94	5.56
COc1cc2c(cc1OC)[C@@H]1C(=O)c3ccc4c(c3O[C@@H]1CO2)C[C@H](C(C)C)O4	14.2	> 85.5	14.4	> 81.8	0.0152	9.08	29.1	> 100	4.41	> 47.4	0.279	20.8	0.239	> 48.2	4.39	23.8	9.26	> 71	6.81	> 69.2
CCn1nc(C2CCN(C(=O)CCO)CC2)nc1-c1cnc(N)c(-c2nnc(C(C)(C)C)o2)n1	0.245	> 100	0.286	2.74	28	> 76.7	3.17	> 100	3.35	> 96.6	7.28	> 100	6.69	> 100	0.155	> 100	6.17	> 100	2.33	39.2
COc1ccc(Sc2[nH]c(C=O)c3ccccc23)cc1	13.8	37.6	4.99	24.9	7.13	26	6.1	28.3	16.7	84	2.03	12.1	5.49	34.1	11.9	25.5	11.6	24.4	1.31	19
OCC1OC(N2C=C(c3nc4ccccc4s3)C3C=CC=CC32)C(O)C(O)C1O (stereo not given)	19.8	> 50	41.1	> 50	11.4	36.4	16.5	> 50	16.9	> 50	16.5	> 50	18.1	> 50	18.1	> 50	31.1	> 50	36.5	> 50
